According to patent publication US20170333112A1, “Optimizing Total Energy Delivered in Nanosecond Pulses for Triggering Apoptosis in Cultured Cells” (Pulse Biosciences, Inc., priority 2016, published 2017):

Experiments:
McA-RH7777 cells = test: ATP released from cells after treatment (FIG. 10); format: cell-based, rat
Description: (§1) FIG. 10 includes charts showing ATP released from MCA205, McA-RH7777, and Jurkat E6-1 cells at different numbers of pulses.

MCA205 cells = test: ATP released from cells after treatment (FIG. 10); format: cell-based, murine
Description: as §1

[1] = higher concentration (100 μM), rank among treatment groups (NPS 15 J/mL highest)
[2] = both high and low concentrations (4 and 10 μM)

SMILES	ATP released (McA-RH7777 cells; [1])	ATP levels compared with untreated cells (MCA205 cells; 100 μM)	ATP released (MCA205 cells; [1])	ATP released (McA-RH7777 cells; [2])	ATP released (MCA205 cells; [2])
COc1cccc2c1C(=O)c1c(O)c3c(c(O)c1C2=O)C[C@@](O)(C(=O)CO)C[C@@H]3O[C@H]1C[C@H](N)[C@H](O)[C@H](C)O1 [doxorubicin]	second highest amount of ATP	significantly higher	second highest amount of ATP	–	–
O=C1c2c(O)ccc(O)c2C(=O)c2c(NCCNCCO)ccc(NCCNCCO)c21 [mitoxantrone]	–	–	–	comparatively small amount ATP	comparatively small amount ATP
